Source: PMC3591361 (PLoS ONE, 2013)
Values after ≈ are worked out from the molar mass of the structure shown.

What was measured:
in vivo = experiment: in vivo; set-up: species or system mice; conditions: i.v.; for half-life: female, athymic nude (nu/nu), mouse, iv, read-out: t1/2 (elimination half-life); for plasma concentration at 4 h: free drug administration (combined free drugs in DMSO)
Procedure: Human ovarian cancer SKOV-3 cells (2 x 10^6 in 0.1 ml matrigel/DMEM mixture) were implanted subcutaneously in each flank of 5–6 week-old female athymic nude mice (nu/nu, Charles River, Wilmington, MA). The tumor size was measured using a caliper, and the tumor volume was calculated as ½ × length × width^2.
Once SKOV-3 tumor volumes reached 100–300 mm^3, the mice were randomized into study groups (4 mice per group). […] At 5, 10, 15, 30, 60, 120 and 240 min post injection, whole blood was collected via the retro-orbital bleeding. Normal organs (liver, lung, spleen, kidney and heart) and tumor tissues were harvested at 120 min. […] The HPLC system (Waters, Milford, MA) consisted of a Waters 2795 pump, a Phenomenex (Torrance, CA) C8 column (5 µm, i.d. 4.6 mm × 150 mm) and a Waters 996 photodiode array detector. α-Naphthoflavone was used as an internal standard. […] For tissue homogenate samples, a gradient elution of A: sodium phosphate buffer and B: methanol (0–30 min 46% A, 30.01–40 min 28% A, 40.01–45 min 46% A) was used. The flow rate was 1.5 ml/min at 40°C. The assay methodology was established using blank plasma and tissue homogenate samples spiked with known drug concentrations. […] Representative chromatograms of the pure drugs, an extract of drug-spiked liver tissue, and an extract of blank liver tissue at 227, 333 and 281 nm are shown in Fig. 2.

[1] = free drug; stated without reference; cited from earlier work
[2] = combination therapy; weekly i.v. infusion for paclitaxel, twice-weekly i.v. infusion for 17-AAG; cited from earlier work
[3] = Stability of ICG fluorescence in HBS at 37°C; type: physicochemical
Procedure: To confirm the incorporation of ICG into the micelles, the stability of ICG-labeled micelles was studied at 37°C. Freshly prepared free ICG solution in HBS at the identical concentration was used as a control. At 0, 2, 4, 8, 24 and 48 h, aliquots of the micellar or free ICG solution were analyzed for the fluorescence intensity at 800 nm using Odyssey imaging system (LI-COR Biosciences, Lincoln, NE). All samples were prepared and analyzed in triplicates.

[4] = In vivo whole-body NIR fluorescence imaging in SKOV-3 tumor-bearing mice; conditions: i.v., ICG dose 2 mg/kg, 800 nm channel
Procedure: ICG-labeled micelles were administered to SKOV-3 tumor-bearing mice via the tail vein injection at an ICG dose of 2 mg/kg. Freshly prepared free ICG solution in HBS was i.v. injected at the same dose to the control mice. Immediately following the injection (0 h) and at 1, 2, 4, 6, 24 and 48 h, the mice were anesthetized under a continuous flow of isoflurane/oxygen, and the spectral fluorescence signals of the whole body images (800 nm channel) were obtained using the Odyssey imaging system.

[5] = plasma, combined free drugs in DMSO, 20 mg/kg paclitaxel + 37.5 mg/kg 17-AAG, plasma, mean ± SD, n = 4

## C=CCNC1=C2C[C@@H](C)C[C@H](OC)[C@H](O)[C@@H](C)/C=C(\C)[C@H](OC(N)=O)[C@@H](OC)/C=C\C=C(/C)C(=O)NC(=CC1=O)C2=O [17-AAG, Tanespimycin]
In vivo; [5]
  half-life: 20.3 ± 2.5 min
In vivo
  plasma concentration at 4 h: below the detection limit
[1]
  aqueous solubility: 17 µM (≈ 9.96 µg/mL)
[2]
  maximum tolerated dose in cancer patients: 175 mg/m^2

## CC1(C)C(/C=C/C=C/C=C/C=C2\N(CCCCS(=O)(=O)O)c3ccc4ccccc4c3C2(C)C)=[N+](CCCCS(=O)(=O)[O-])c2ccc3ccccc3c21 [ICG, indocyanine green]
[3]; 8 h
  decrease in fluorescence emission intensity: about 50%
[3]; 48 h
  decrease in fluorescence emission intensity: over 80%
[4]
  clearance of fluorescence signal from the circulation/body: rapidly cleared from the circulation

## CC(=O)O[C@H]1C(=O)[C@@]2(C)[C@H]([C@H](OC(=O)c3ccccc3)[C@]3(O)C[C@H](OC(=O)[C@H](O)[C@@H](NC(=O)c4ccccc4)c4ccccc4)C(C)=C1C3(C)C)[C@]1(OC(C)=O)CO[C@@H]1C[C@@H]2O [paclitaxel, Paclitaxel]
In vivo; combined free drugs in DMSO, 20 mg/kg paclitaxel + 37.5 mg/kg 17-AAG, plasma, mean ± SD, n = 4
  AUC: 415.3±56.7 uM⋅min
In vivo; [5]
  half-life: ~40 min
In vivo
  plasma concentration at 4 h: below the detection limit
[2]
  maximum tolerated dose in cancer patients: 80 mg/m^2
